The subject of data set [1] is adult subjects with late-onset Pompe disease (LOPD). The data set can be described thus: ATB200-03 (PROPEL): Gait, Stair, Gower, Chair (GSGC) test. Format: in vivo, human. The settings on record: overall population, 52 weeks (p<0.05). The source says: (§1) The ATB200-03 trial was a phase 3 double-blind, randomized, multicenter, international study of ATB200/AT2221 in adult subjects with late-onset Pompe disease (LOPD) who had received enzyme replacement therapy with alglucosidase alfa (i.e., ERT-experienced) or who had never received ERT (i.e., ERT naïve), compared with alglucosidase alfa/placebo.
(§2) Efficacy assessments (i.e., functional assessments) included evaluation of ambulatory function (6MWT), motor function tests (Gait, Stair, Gower, and Chair maneuver (GSGC) test and Timed Up and Go (TUG) test), muscle strength (manual muscle testing and quantitative muscle testing), and pulmonary function tests (FVC, SVC, MIP, MEP, and SNIP). Patient reported outcomes (Rasch-built Pompe-specific Activity (R Pact) Scale, EuroQol 5 Dimensions 5 Levels Instrument (EQ-5D-5L), Patient-Reported Outcomes Measurement Information System (PROMIS®) instruments for physical function, fatigue, dyspnea, and upper extremity, and Subject's Global Impression of Change) were recorded. The Physician's Global Impression of Change were also performed.
Key secondary efficacy endpoints in a pre-specified hierarchical order of importance were as follows. […]

Data set [2] shares this test system. The data set can be described thus: ATB200-03 (PROPEL): urinary hexose tetrasaccharide (Hex4) biomarker. The data set is classed as in vivo, human. The settings on record: after 52 weeks, combined ERT switch and ERT naïve population (p<0.001).
Description: as §1
(§3) Pharmacodynamic assessments included measurement of biomarkers of muscle injury (creatine kinase (CK) and disease substrate (urinary hexose tetrasaccharide (Hex4)). Sparse blood samples were collected for determination of total GAA protein levels and AT2221 concentrations in plasma for a population PK analysis in ERT-experienced subjects. Serial blood sampling for characterization of the PK profile of total GAA protein and AT2221 were done in ERT-naïve subjects.
(§4) Pharmacodynamic endpoints were as follows: • change from baseline to Week 52 in serum CK level • change from baseline to Week 52 in urinary Hex4 level

Data set [3] shares this test system. In words: ATB200-03 (PROPEL): safety assessments. The data set is classed as in vivo, human. Conditions: 52-week treatment. The source says:
Safety assessments included monitoring of adverse events (AEs), including infusion associated reactions (IARs), clinical laboratory tests (chemistry, hematology, and urinalysis), vital signs, physical examinations including weight, electrocardiograms (ECGs), and immunogenicity. Concomitant medications and nondrug therapies were also be recorded.
The safety profile of ATB200/AT2221 was characterized using incidence of treatment emergent adverse events (TEAEs), serious adverse events (SAEs), and AEs leading to discontinuation of study drug, frequency and severity of immediate and late IARs, and any abnormalities noted in other safety assessments. The impact of immunogenicity to ATB200 and alglucosidase alfa on safety and efficacy was also assessed.
Safety Analyses. Safety data was summarized using counts and percentages for categorical data and descriptive statistics (mean, standard deviation, median, minimum, maximum) for continuous data.

The subject of data set [4] is subjects with late-onset Pompe disease (LOPD). The settings on record: cited from earlier work.
Data set [5] relates to Gaa KO mice. The data set can be described thus: single fiber analysis (LAMP1/LC3 co-immunofluorescence, white gastrocnemius). Conditions: Gaa KO mice. Format: in vivo. The source says: FIG. 17 depicts co-immunofluorescent staining of LAMP1 (green) (see for example, “B”) and LC3 (red) (see, for example, “A”) in single fibers isolated from the white gastrocnemius of Gaa KO mice treated with a vehicle, alglucosidase alfa, or ATB200. “C” depicts clearance of autophagic debris and absence of enlarged lysosome. A minimum of 30 fibers were examined from each animal.
As a result, a significant portion of muscle fibers analyzed (36-60%) from ATB200-treated mice appeared normal or near-normal.

The test system of data set [6] is adult subjects with late-onset Pompe disease (LOPD). In words: ATB200-03 (PROPEL) phase 3 trial: 6-minute walk test. The data set is classed as in vivo, human.
Description: as §1
Eligible subjects were randomly assigned in a 2:1 ratio to receive ATB200/AT2221 or alglucosidase alfa/placebo and stratified by ERT status (ERT-experienced, ERT-naïve) and baseline 6-minute walk distance (6MWD) (75 to <150 meters, 150 to <400 meters, ≥400 meters).
as §2
The primary efficacy endpoint was the change from baseline to Week 52 in 6MWD. The primary endpoint was tested for superiority of ATB200/AT2221 vs Alglucosidase alfa/placebo, using mixed-effect model for repeated measures (MMRM) and pre-specified nonparametric test in case of violation of normality.
Efficacy Analyses. The primary efficacy endpoint (i.e., change from baseline to Week 52 in 6MWD) was analyzed using a parametric analysis of covariance (ANCOVA) model to compare between the new treatment and the control. This model would typically adjust for baseline 6MWD (as a continuous covariate), and the 2 factors used to stratify randomization: ERT status (ERT naïve vs. ERT-experienced) and baseline 6MWD (75 to <150 meters, 150 to <400 meters, ≥400 meters). However, the baseline 6MWD could not be used in the model twice (both as a continuous and a categorical variable) due to the expected high point biserial correlation between them. Thus, the 6MWD continuous variable remained in the model but the categorical 6MWD was removed. The ANCOVA model then had terms for treatment, baseline 6MWD (continuous), and ERT status (categorical).
(§5) PROPEL was a 52-week, double-blind randomized global study designed to assess the efficacy, safety and tolerability of AT-GAA compared to the current standard of care, alglucosidase alfa, an enzyme replacement therapy (ERT). The study enrolled 123 adult Pompe patients who still had the ability to walk and to breathe without mechanical ventilation and was conducted at 62 clinical sites in 24 countries on 5 continents. It was the largest controlled clinical study ever conducted in a lysosomal disorder.

Data set [7] has the same test system. In words: ATB200-03 (PROPEL): creatine kinase (CK) biomarker of muscle injury. The settings on record: after 52 weeks, overall population (p<0.001). The data set is classed as in vivo, human.
Description: as §1, §3, §4

The subject of data set [8] is Gaa KO mice. In words: muscle biomarker analysis (LAMP1, LC3, dysferlin) in Gaa KO mice. Format: in vivo. Conditions: FIG. 15B. On the procedure:
The therapeutic effects of ATB200 and AT2221 were evaluated and compared against those of Alglucosidase alfa in Gaa KO mice. For the study, male Gaa KO (3- to 4-month old) and age-matched wild-type (WT) mice were used. Alglucosidase alfa was administered via bolus tail vein intravenous (IV) injection. In the co-administration regimen, AT2221 was administered via oral gavage (PO) 30 minutes prior to the IV injection of ATB200. Treatment was given biweekly. Treated mice were sacrificed after 14 days from the last administration and various tissues were collected for further analysis. Table 7 summarizes the study design:
Tissue samples were also analyzed for biomarker changes following the methods discussed in: Khanna R, et al. (2012), “The pharmacological chaperone AT2220 increases recombinant human acid α-glucosidase uptake and glycogen reduction in a mouse model of Pompe disease,” Plos One 7(7): e40776; and Khanna, R et al. (2014), “The Pharmacological Chaperone AT2220 Increases the Specific Activity and Lysosomal Delivery of Mutant Acid α-Glucosidase, and Promotes Glycogen Reduction in a Transgenic Mouse Model of Pompe Disease,” PLoS ONE 9(7): e102092.

Data set [9] concerns adult subjects with late-onset Pompe disease (LOPD). The data set can be described thus: ATB200-03 (PROPEL) phase 3 trial: sitting forced vital capacity. Format: in vivo, human.
Description: as §1, §2
Key secondary efficacy endpoints in a pre-specified hierarchical order of importance were as follows. These secondary endpoints were analyzed using analysis of covariance (ANCOVA) model with last observation carried forward (ITT LOCF). • change from baseline to Week 52 in sitting FVC (% predicted) • change from baseline to Week 52 in the manual muscle test score for the lower extremities • change from baseline to Week 52 in the total score for the PROMIS—physical function • change from baseline to Week 52 in the total score for the PROMIS—fatigue • change from baseline to Week 52 in GSGC total score
as §5

Where [10] appears, read: ERT switch (ERT-experienced) population (n=95).
Where [11] appears, read: ERT treatment naïve population (n=27), listed as Alglucosidase alfa.
The mark [12] stands for this setting: overall ERT switch and ERT naïve population (n=122).

For “[199-arginine,223-histidine]prepro-α-glucosidase (human) [alglucosidase alfa]”, in data set [1], the GSGC scores result was “worsening”. Also, in data set [2], the “mean change in urine Hex-4” value was “+11.0%”. Also, the “patients who discontinued treatment due to an adverse event” value in data set [3] is 2.6%. Further, in data set [3] (share of participants), the “Injection associated reactions (IARs) reported” value turned out to be 26%. In data set [4] (368 LOPD subjects from published studies), the “subjects who did not show an initial improvement during treatment” value was over 30%. Further, the “duration of improvements in initial responders” value in [4] (longer-term studies) was “approximately 2 years”. Besides, the “Fibers with Autophagy Buildup” value in data set [5] is over 90%. Besides, the “Fibers with Normal or Near-normal Appearance” value in data set [5] is reported as under 10%. Further, the “6MWD CFBL at Week 52” value in data set [6] (setting [10]) is listed as 0.0 m; in data set [6] (ERT treatment naïve population (n=27)), 38 m; in data set [6] (setting [11]), “+38.3 (11.1) m”; in data set [6] (setting [12]), 7 m; in [6] (overall ERT switch and ERT naïve population (n=122), listed as Alglucosidase alfa) it was “+7.2 m”. Further, the “mean change in CK” value in data set [7] was “+15.6%”. Besides, the “LC3 II level by western blot (autophagy)” value in [8] was “modest”. Besides, the “FVC CFBL at Week 52” value is given as −4.0 (0.9) % predicted in data set [9] (setting [10]); −3.6 (1.8) % predicted in data set [9] (setting [11]); −3.6 % predicted in data set [9] (ERT treatment naïve population (n=27), listed as alglucosidase alpha); −4.0 (0.8) % predicted in data set [9] (setting [12]). Besides, the “absolute decline in percent-predicted FVC” value is 4.0% in data set [9] (after 52 weeks, combined population) and 4.0% in [9] (over the course of the year, ERT switch patients).

Source of the values: US20240197839A1, “Recombinant Human Acid Alpha-Glucosidase and Uses Thereof” (Amicus Therapeutics, Inc., priority 2021, published 2024).
